Drawing on ChEMBL document CHEMBL1128843, “Protein kinase C- inhibitors; structure-activity relationships in bis-indole series” (Bioorg Med Chem Lett, 1995), this text covers IC50 for seven molecules.

In this test the target is Protein kinase C alpha type (Homo sapiens, UniProt P17252). The test is described as follows: Inhibition of Protein kinase C alpha.
The term IC50 denotes the point on the concentration scale where inhibition reaches its midpoint. Higher therefore signals weaker potency. The molecule `CN(C)CCCNC(=O)c1cc(NC(=O)c2cc(NC(=O)c3cc(NC(=O)Cn4cc(C5=C(c6c[nH]c7ccccc67)C(=O)NC5=O)c5ccccc54)cn3C)cn2C)cn1C` returned a 50% inhibitory concentration (IC50) of 460 nM.

Molecule `COC(=O)c1cc(NC(=O)Cn2cc(C3=C(c4c[nH]c5ccccc45)C(=O)NC3=O)c3ccccc32)cn1C` yielded a 50% inhibitory concentration (IC50) of 500 nM.

`CN(C)CCCn1cc(C2=C(c3c[nH]c4ccccc34)C(=O)NC2=O)c2ccccc21` [GF-109203] came in with an IC50 of 10 nM.

As for `CN(C)CCCNC(=O)c1cc(NC(=O)c2cc(NC(=O)Cn3cc(C4=C(c5c[nH]c6ccccc56)C(=O)NC4=O)c4ccccc43)cn2C)cn1C`, the IC50 is 630 nM.

For the molecule `COC(=O)c1cc(NC(=O)c2cc(C(=O)c3cc(NC(=O)Cn4cc(C5=C(c6c[nH]c7ccccc67)C(=O)NC5=O)c5ccccc54)cn3C)cn2C)cn1C`, 170 nM corresponded to half-maximal inhibition (IC50).

With `CN(C)CCCNC(=O)c1cc(NC(=O)Cn2cc(C3=C(c4c[nH]c5ccccc45)C(=O)NC3=O)c3ccccc32)cn1C`, the IC50 is 1000 nM.

`COC(=O)c1cc(NC(=O)c2cc(NC(=O)Cn3cc(C4=C(c5c[nH]c6ccccc56)C(=O)NC4=O)c4ccccc43)cn2C)cn1C` registered a 50% inhibitory concentration (IC50) of 280 nM.
